Reference: ChEMBL document CHEMBL1133287, “Preparation and evaluation of 1,3-diaminocyclopentane-linked dihydropyrimidinone derivatives as selective alpha1a-receptor antagonists” (Bioorg Med Chem Lett, 2000)

Experiments:
Type in all cases: cell-based
[1] = molecular target: T1, Alpha-1B adrenergic receptor (Homo sapiens, UniProt P35368); test: Displacement of [125I]HEAT from human Alpha-1B adrenergic receptor stably expressed in LM cells
T1 sequence (P35368 whole entry): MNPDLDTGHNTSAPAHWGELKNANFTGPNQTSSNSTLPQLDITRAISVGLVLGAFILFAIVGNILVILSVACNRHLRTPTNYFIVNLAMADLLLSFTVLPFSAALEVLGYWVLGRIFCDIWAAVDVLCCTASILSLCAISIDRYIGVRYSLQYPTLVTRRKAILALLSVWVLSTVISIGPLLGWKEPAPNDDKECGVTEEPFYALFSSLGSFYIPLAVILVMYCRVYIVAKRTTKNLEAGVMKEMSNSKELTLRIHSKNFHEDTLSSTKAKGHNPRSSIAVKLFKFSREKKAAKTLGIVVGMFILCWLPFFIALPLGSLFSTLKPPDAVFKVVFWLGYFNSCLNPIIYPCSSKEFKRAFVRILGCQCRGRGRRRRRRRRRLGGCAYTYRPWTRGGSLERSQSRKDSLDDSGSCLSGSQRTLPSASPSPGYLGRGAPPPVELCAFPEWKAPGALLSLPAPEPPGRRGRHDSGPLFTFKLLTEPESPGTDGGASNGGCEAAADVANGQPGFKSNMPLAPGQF

[2] = molecular target: T2, Alpha-1D adrenergic receptor (Homo sapiens, UniProt P25100); test: Displacement of [125I]HEAT from human Alpha-1D adrenergic receptor stably expressed in HL cells
T2 sequence (P25100 whole entry): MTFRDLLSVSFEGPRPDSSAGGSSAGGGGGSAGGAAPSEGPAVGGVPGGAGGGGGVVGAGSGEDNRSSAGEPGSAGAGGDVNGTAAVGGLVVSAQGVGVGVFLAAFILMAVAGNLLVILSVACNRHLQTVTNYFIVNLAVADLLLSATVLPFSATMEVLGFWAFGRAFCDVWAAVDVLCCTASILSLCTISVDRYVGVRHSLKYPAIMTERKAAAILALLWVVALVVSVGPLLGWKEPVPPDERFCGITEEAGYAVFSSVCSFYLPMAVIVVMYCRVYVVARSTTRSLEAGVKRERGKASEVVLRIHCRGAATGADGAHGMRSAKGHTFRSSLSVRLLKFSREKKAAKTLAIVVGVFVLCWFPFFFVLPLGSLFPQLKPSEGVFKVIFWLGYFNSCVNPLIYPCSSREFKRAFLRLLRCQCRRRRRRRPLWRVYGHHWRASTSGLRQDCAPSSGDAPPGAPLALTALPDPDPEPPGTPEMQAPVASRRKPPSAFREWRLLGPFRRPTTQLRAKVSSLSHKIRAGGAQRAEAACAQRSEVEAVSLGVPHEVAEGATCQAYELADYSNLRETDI

[3] = molecular target: T3, Alpha-1A adrenergic receptor (Homo sapiens, UniProt P35348); test: Displacement of [125I]HEAT from human Alpha-1A adrenergic receptor stably expressed in CHO cells
T3 sequence (P35348 whole entry): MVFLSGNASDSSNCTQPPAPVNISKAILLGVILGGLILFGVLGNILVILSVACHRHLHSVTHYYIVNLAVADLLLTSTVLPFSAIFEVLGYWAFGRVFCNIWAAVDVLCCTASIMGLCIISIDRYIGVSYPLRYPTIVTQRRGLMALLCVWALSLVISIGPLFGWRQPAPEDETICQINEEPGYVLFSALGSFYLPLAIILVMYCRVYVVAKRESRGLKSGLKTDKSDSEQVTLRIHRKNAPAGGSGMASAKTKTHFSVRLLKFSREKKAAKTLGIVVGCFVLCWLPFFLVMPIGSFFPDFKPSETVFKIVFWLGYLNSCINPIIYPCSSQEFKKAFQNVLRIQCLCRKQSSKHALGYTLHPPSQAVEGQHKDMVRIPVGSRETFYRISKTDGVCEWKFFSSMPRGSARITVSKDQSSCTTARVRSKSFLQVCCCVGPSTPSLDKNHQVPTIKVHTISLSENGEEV

SMILES	Ki [1] [nM]	Ki [2] [nM]	Ki [3] [nM]
COCC1=C(C(=O)OC)[C@H](c2ccc(F)c(F)c2)N(C(=O)N[C@@H]2CC[C@@H](N3CCC(C#N)(c4ccccc4)CC3)C2)C(=O)N1	210	660	0.37
COCC1=C(C(=O)OC)[C@H](c2ccc(F)c(F)c2)N(C(=O)N[C@@H]2CC[C@H](N3CCN(c4ccccc4C#N)CC3)C2)C(=O)N1	28	7.5	1.6
COCC1=C(C(=O)OC)[C@H](c2ccc(F)c(F)c2)N(C(=O)N[C@H]2CC[C@@H](N3CCC(c4ccccc4C#N)CC3)C2)C(=O)N1	70	97	0.6
COCC1=C(C(=O)OC)[C@H](c2ccc(F)c(F)c2)N(C(=O)N[C@@H]2CC[C@H](N3CCC(C#N)(c4ccccc4)CC3)C2)C(=O)N1	1900	620	1
COCC1=C(C(=O)OC)[C@H](c2ccc(F)c(F)c2)N(C(=O)N[C@@H]2CC[C@@H](N3CCC(c4ccccn4)CC3)C2)C(=O)N1	350	500	0.38
COCC1=C(C(=O)OC)[C@H](c2ccc(F)c(F)c2)N(C(=O)N[C@H]2CC[C@H](N3CCN(c4ccccc4C#N)CC3)C2)C(=O)N1	15	9	4.8
COCC1=C(C(=O)OC)[C@H](c2ccc(F)c(F)c2)N(C(=O)N[C@H]2CC[C@@H](N3CCC(C#N)(c4ccccc4)CC3)C2)C(=O)N1	730	660	2.4
COCC1=C(C(=O)OC)[C@H](c2ccc(F)c(F)c2)N(C(=O)N[C@H]2CC[C@H](N3CCC(c4ccccn4)CC3)C2)C(=O)N1	130	170	8.3

More lines, in order of falling Ki [1], values ahead:

Ki [1] [nM]	Ki [2] [nM]	Ki [3] [nM]	SMILES
1300	320	0.4	COCC1=C(C(=O)OC)[C@H](c2ccc(F)c(F)c2)N(C(=O)N[C@@H]2CC[C@H](N3CCC(c4ccccn4)CC3)C2)C(=O)N1
290	550	4.7	COCC1=C(C(=O)OC)[C@H](c2ccc(F)c(F)c2)N(C(=O)N[C@H]2CC[C@@H](N3CCC(c4ccccn4)CC3)C2)C(=O)N1
130	16	0.24	COCC1=C(C(=O)OC)[C@H](c2ccc(F)c(F)c2)N(C(=O)N[C@@H]2CC[C@H](N3CCC(c4ccccc4C#N)CC3)C2)C(=O)N1
120	95	2.3	COCC1=C(C(=O)OC)[C@H](c2ccc(F)c(F)c2)N(C(=O)N[C@H]2CC[C@H](N3CCC(C#N)(c4ccccc4)CC3)C2)C(=O)N1
91	31	0.46	COCC1=C(C(=O)OC)[C@H](c2ccc(F)c(F)c2)N(C(=O)N[C@@H]2CC[C@@H](N3CCC(c4ccccc4C#N)CC3)C2)C(=O)N1
51	39	0.44	COCC1=C(C(=O)OC)[C@H](c2ccc(F)c(F)c2)N(C(=O)N[C@H]2CC[C@@H](N3CCN(c4ccccc4C#N)CC3)C2)C(=O)N1
36	11	2.4	COCC1=C(C(=O)OC)[C@H](c2ccc(F)c(F)c2)N(C(=O)N[C@H]2CC[C@H](N3CCC(c4ccccc4C#N)CC3)C2)C(=O)N1
14	5.4	0.9	COCC1=C(C(=O)OC)[C@H](c2ccc(F)c(F)c2)N(C(=O)N[C@@H]2CC[C@@H](N3CCN(c4ccccc4C#N)CC3)C2)C(=O)N1
